This is an account of results in patent publication US9308161B2, “Substance for restoring normal co-expression and interaction between the LOX and NRAGE proteins” (BASF Beauty Care Solutions France S.A.S., priority 2005, dated 2016).

One test concerns transglutaminase. Nature of the test: Transglutaminase immunolabelling intensity in reconstructed skin model (MIMESKIN). The class given is cell-based, human. To be noted: positive control, calcium chloride 1.5 mM. Here is the method: The reconstructed skin model is in particular achieved according to the following protocol: • 0.5 to 1.10^6 fibroblasts of normal human skin are sown on a matrix substrate based on collagen/glycosaminoglycan/chitosan, and then grown in a nutritive medium, for example DMEM-Glutamax supplemented with 10% of calf serum; ascorbic acid, preferably at a final concentration of 1 mM; EGF (epidermal grow factor), preferably at a final concentration of 10 ng/ml; Normocin, preferably at a final concentration of 100 μg/ml, for 21 days. • 0.5 to 1.10^6 […], and then grown in a nutritive medium, for example DMEM-Glutamax/Ham F-12 (ratio 3:1 v/v) supplemented with calf serum, ascorbic acid, preferably at a final concentration of 1 mM; EGF (epidermal growth factor), preferably at a final concentration of 10 ng/ml; hydrocortisone, preferably at a final concentration of 0.4 μg/ml; umuline, preferably at a final concentration of 0.12 IU/ml; isuprel, preferably at a final concentration of […]; triiodothyronine, preferably at a final concentration of 2.10^−9M; adenine, preferably at a final concentration of 24.3 μg/ml; Normocin, preferably at a final concentration of 100 μg/ml. The culture was continued for 7 days in an immersed condition. The cultures were then placed at the air-liquid interface for 14 additional days in the same medium as the immersion culture, except for the calf serum, hydrocortisone, isuprel, triidothyronine and umuline.
The active ingredient (ephedra extract) is advantageously diluted in the culture media described above at 0.5 and 1% and used 3 days after the respective sowing of fibroblasts and keratinocytes (i.e. days 3 to 21 and days 24 to 42). […]
Viewing of immunolabellings is performed under photon microscopy (Axioskop2plus—Zeiss, Germany) and quantification of the transglutaminase immunolabellings was performed by image analysis (Lucia—Nilon, France) and the effects of the treatment with the active ingredient are evaluated (Holm-Sidak statistical test, p<0.01).

The test system of another test is LOX. Briefly: LOX messenger RNA by quantitative RT-PCR, keratinocytes in culture in the absence of calcium differentiation (Example 15). Conditions: mRNA relative to actine vs untreated control (NT); 24 hours; no calcium differentiation; 0.1% to 1% (v/v). Format: cell-based, human. Here is the method: The actives were tested on normal human keratinocytes from young subjects, obtained by enzymatic extraction of human biopsies collected after surgical resection and cultivated as monolayers in a K-SFM (keratinocyte serum free medium with supplements) defined medium, supplemented with antibiotics at 37° C. under 5% CO2. The cells are sown at the second passage in 24-well plates, for example with an amount of 30 000 cells per cm^2 and grown until about 95% confluence. […] Active ingredients of different origins (vegetable, biotechnological origin or synthesized molecules for example) are tested from 0.1% volume/volume (v/v) to 1% (v/v). An active ingredient from vegetable origin is tested for example at 1% (v/v) and a synthesized molecule is tested for example at 0.1% (v/v) […] The obtained extracts are then filtered or distilled in order to recover the soluble fraction which is then filtered at 0.45 μm preferably. The biotechnological hydrolysates are obtained by fermentation of vegetable extracts in the presence of microorganisms, advantageously from the Lactobacillus or Saccharomyces family. These hydrolysates are then preferably filtered to 0.45 μm. The incubation is advantageously performed for 24 hours at 37° C. under 5% CO2, in a K-SFM medium without growth factors but with antibiotics. The negative controls are either the culture medium by itself, or the culture medium containing from 0.1% (v/v) to 1% (v/v) of the solvent used during the method for extracting the tested extracts. […] The untreated cells (NT control) are dry frozen at -80° C. after rinsing with pH 7.4 phosphate buffer. […] Modification of the expression of the genes is achieved by real time RT-PCR which measures the expression of each gene relative to actine (housekeeping gene) and expressed as a % of the untreated negative control (NT). […] According to the experimentation, the measuring threshold of C(T) (=cycle threshold) was set for T between 0.05 and 0.01 and then an arbitrary measuring unit is calculated for each gene according to the formula: […] […]

For test [1], the system named is differentiated human keratinocytes. Briefly: Apoptosis by TUNEL in monolayer cultures of differentiated human keratinocytes, LOX activity inhibited. The class given is cell-based. As to the method: The study was carried out on monolayer cultures of differentiated human keratinocytes at confluence. The effect of LOX on apoptosis was identified by inhibiting its activity through the addition of β-APN (0.02% w/v—(weight/volume)) under normal or proapoptotic conditions (thermal shock caused by exposure to a temperature of 45° C.±0.5° C. for 1 h 30 min).
Cell death by apoptosis is detected and quantified using the TUNEL (terminal deoxynucleotidyl transferase mediated dUTP nick end labeling) technique, which is based on labeling of the […] accompanying apoptosis.
The first step consists in labeling the DNA breaks with TdT (terminal deoxynucleotidyl transferase), which catalyzes the polymerization of the fluorescein-labeled nucleotides at the free 3′-OH end of the DNA. The second step consists in detecting the incorporated fluorescein with an alkaline phosphatase-conjugated anti-fluorescein antibody after incubation with the substrate for the latter.
The experiment is validated by means of a positive control obtained by fragmentation of the DNA with a DNase solution, and a negative control obtained by depositing phosphate buffer.

“And” between values parts separate entries of the source, which are not always exact repeats. Identical values can stand only once.

For the compound `[Ca+2].[Cl-].[Cl-]` [Calcium, calcium chloride], in the test with transglutaminase, the “INTENSITY Average” value is reported as 0.067 and the “Variation vs NT” value was found to be 59%. Moreover, the “INTENSITY of transglutaminase labelling (single values)” value in the test with transglutaminase (day 28-42) was 0.061 and 0.076 and 0.064.

On to `CC/C=C/CC(=O)OCC` [Ethyl trans 3-hexanoate], for which, in the test on LOX, the “LOX modulation vs NT” value was found to be 2.3.

With `CCC(C)C(=O)OC` (stereo not drawn) [Methyl 2 methyl butyrate], the “LOX modulation vs NT” value in the test with LOX amounted to 2.5.

On to `OC[C@@H](O)[C@H](O)[C@@H](O)CO` [Xylitol], for which the “LOX modulation vs NT” value with LOX was 2.8.

`N#CCCN` [β-APN, β-aminopropionitrile]: the “Without thermal shock (% of labeled cells)” value in test [1] (TUNEL, β-APN 0.02% w/v, normal conditions) is 56% of labeled cells. The “With thermal shock (% of labeled cells)” value in test [1] (TUNEL, β-APN 0.02% w/v, thermal shock 45° C.±0.5° C. for 1 h 30 min) is 81% of labeled cells. The effect on apoptosis result in test [1] (inhibition of the enzymatic activity of LOX by β-APN) is recorded as “substantial increase in apoptosis”.
